From US9234222B2, “Microbial strains producing sphingoid bases or derivatives thereof” (EVONIK DEGUSSA GMBH, priority 2004, dated 2016) come the findings set out here.

For this assay, the system named is Pichia ciferrii strains. Put plainly: Minimal inhibitory concentration of SyringomycinE on YEPD agar plates. It is filed as cell-based. To be noted: 10 μg/ml in YEPD selective plates. How it is done:
In order to isolate high sphinganine producing Pichia ciferrii strains the following procedure was followed. First, the natural sensitivity of Pichia ciferrii strains for the toxic compound SyringomycinE, produced by […] syringae (Gross D C, 1985, Regulation of syringomycin synthesis in Pseudomonas syringae pv. syringae and defined conditions for its production. J Appl Bacteriol. 58:167-174), was determined by adding different concentrations of SyringomycinE to agar plates. A stock solution of 3.5 mg SyringomycinE (obtained from J. Takemoto, Utah State University) was prepared by dissolving it in 1.0 ml 0.001 N HCl. The pH was kept below 7 for stability and stored at −20° C. The minimal inhibitory concentration (=MIC-value) for Pichia ciferrii strains was determined by using YEPD plates (per liter: Yeast Extract, 10 g; Pepton, 20 g; Glucose, 20 g; Agar, 20 g) containing various concentrations between 0.1 and 20 μg/ml syringomycinE. On each plate with the different concentrations of syringomycinE 100 μl of a freshly grown culture (OD600 nm=0.4) was plated and incubated at 30° C. for 5 days.
Depending on the strain no colonies appeared on plates with 2 to 10 μg/ml of SyringomycinE, meaning that the MIC value lies between 2 and 10 μg/ml. […]

Bridge positions count the residues as written; N and C are the ends. Square brackets hold non-standard residues; d marks the D form. Peptide text beside a SMILES is read from it. * marks the point of attachment. Asp(3S-OH) = N[C@H](C(=O)O)[C@H](O)C(=O)O; Thr(4-Cl) = N[C@H](C(=O)O)[C@H](O)CCl; X1 = CCCCCCCCC[C@@H](O)CC(=O)*; dDab = NCC[C@@H](N)C(=O)O; Dab = NCC[C@H](N)C(=O)O; Dhb = C/C=C(\N)C(=O)O

In the case of `C/C=C1\NC(=O)[C@H](Cc2ccccc2)NC(=O)[C@H](CCCN=C(N)N)NC(=O)[C@@H](CCN)NC(=O)[C@H](CCN)NC(=O)[C@@H](CO)NC(=O)[C@@H](NC(=O)C[C@H](O)CCCCCCCCC)COC(=O)[C@H]([C@H](O)CCl)NC(=O)[C@H]([C@H](O)C(=O)O)NC1=O` [SyringomycinE] (X1-S[dS][Dab][dDab]RF[Dhb][Asp(3S-OH)][Thr(4-Cl)]; ester 1-C), the “effect on standard P. ciferrii strains” value is “lethal”.
